Legend:
[1] = tested on: female Lister hooded rats; conditions: rat, in vivo
Excerpt: (§1) Experimentally naïve rats were housed individually in plastic cages containing bedding. Housing rooms were maintained under a 12/12-hour light/dark cycle at controlled ambient temperature and relative humidity. Animals were allowed to acclimate to laboratory conditions before the beginning of experiments and had free access to water. Access to food was restricted to facilitate training and maintenance of operant behavior with the exception of training of female rats in the MDMA drug discrimination study. Experiments were conducted in operant chambers (MED Associates, Inc., St. Albans, Vt., U.S.A.) located within sound-attenuating, ventilated cubicles. Each chamber was equipped with a stimulus light, lever(s) located near a food receptacle which was connected to a food pellet dispenser. Chambers used for reinstatement studies were also equipped with a Sonalert® tone generator.
The training substance was administered 15 minutes before the session. […] The percentage of total responses on the training drug-appropriate lever and response rates were calculated for each rat.

[2] = tested on: Female Sprague Dawley Rats; assay: withdrawal-induced physical dependence study
Procedure: Animals were not dosed during the withdrawal phase. Dosing in the morning was staggered such that every animal was observed individually on each day.
Body weights were recorded prior to each dosing session on Day −6 to Day 46 and in the morning during the withdrawal phase. Only body weight recorded prior to the morning dosing session was used for statistical analysis. Food and water intake were measured once daily in the morning from Day −6 to Day 46 just prior to dosing, and in the morning of the withdrawal phase. Body temperatures were measured once daily using a rectal probe from Day −6 to Day 46 just prior to dosing, and, immediately prior to body weight measurement during the withdrawal. A detailed observation checklist was used to record any physical or behavioral signs of pharmacological effect during dosing and of drug dependence in the withdrawal phase. Rats were observed on a workbench in their open topped home cages (in the holding room where they were kept throughout the study) for a 2 min period 1 hr after the morning dose during the baseline and dosing phases and twice daily on Day 46 and during the withdrawal phase. […] For all other endpoints, withdrawal begins on Day 47.

[3] = tested on: male SD rats trained to self-administer heroin; assay: self-administration (heroin substitution) test; conditions: Sprague-Dawley, rat, in vivo
Excerpt: as §1

Q: Which results are given for O=C1CC2(CCCC2)CC(=O)N1CCCCN1CCN(c2ncccn2)CC1 [buspirone]?
A: generalization to MDMA [1]: 37.2±20.4%; weak partial generalization to the cue elicited by MDMA [1]: < 50%

Q: Which results are given for CN1C(=O)CN=C(c2ccccc2)c2cc(Cl)ccc21 [diazepam]?
A: weight of the rats vs vehicle at the end of the dosing phase ([2]; 10/15/20 mg/kg p.o. b.i.d. on Days 1-5/6-18/19-46): 5.4%; withdrawal signs on cessation of dosing ([2]; 10/15/20 mg/kg p.o. b.i.d., 46 days): Physical dependence was demonstrated

Q: CC(=O)Oc1ccc2c3c1O[C@H]1[C@@H](OC(C)=O)C=C[C@H]4[C@@H](C2)N(C)CC[C@@]341 [heroin] was tested. Which “mean number of infusions, heroin acquisition session” value [3] did it give?
A: 19.0±0.4
